These results are taken from US20040191289A1, “Compositions for controlling plant pathogenic bacterium and method of controlling plant pathogenic bacterium” (priority 2001, published 2004).

For assay [1], the system named is Pythium Damping-off Disease of Rice Seedlings. As to the kind of experiment: Test for prophylactic efficacy against Pythium damping-off disease of rice seedlings (1) (Test Example 2). The class given is in vivo. Particulars: soil irrigation, 29 days after sowing. As to the method: (§1) Polyvinyl chloride cups (each 10 cm square) were filled with pathogen-inoculated soil as bed soil, and seeded with rice seeds. Next, the polyvinyl chloride cup was irrigated using a pipette with a test solution (27.8 ml) prepared by adjusting each active ingredient compound to a predetermined concentration, and then covered with soil. After kept for 3 days in a thermostatic room set at 32° C., the plants were grown in a greenhouse. Ten days after sowing, the plants were exposed to a cold temperature during night. Twenty nine days after sowing, the disease incidence area was examined. In these cases, each theoretically expected value obtained from the aforementioned formula derived from the Colby's formula is shown in parentheses in Table 3.

Assay [2] has as its system Pythium debaryanum (MAFF No. 305462). As to the kind of experiment: Antimicrobial test, mycelial growth on PSA medium (Test Example 4). In kind it is cell-based. The following applies: 20° C., 1 day incubation. The method, then:
(§2) Each sample fungal flora pre-cultured in PSA medium was cut from the medium plate with a cork borer, and placed on a center of PSA medium containing each test compound at a predetermined concentration, dispensed in a Petri dish with an inner diameter of 8 cm. Immediately thereafter, the dish was allowed to stand in a thermostatic room set at 20° C. […] In cases where an observed value is lower than the theoretically expected one derived from the Colby's formula, the phytopathogenic microorganism-disinfecting composition of the present invention is synergistically effective in combating and/or eliminating phytopathogenic microorganisms.

The test system of assay [3] is Aphanomyces cochlioides (MAFF No. 305548). Described as above. In kind it is cell-based. The following applies: 20° C., 3 day incubation. The method, then: as §2
The subject of assay [4] is Pythium Damping-off Disease of Rice Seedlings. Briefly: Test for prophylactic efficacy against Pythium damping-off disease of rice seedlings (2) (Test Example 3). The following applies: soil irrigation, 35 days after sowing. The class given is in vivo. The method, then: as §1, with “AS resin cases” for “Polyvinyl chloride cups”, “15×11 cm)” for “10 cm square)”, “AS resin case” for “polyvinyl chloride cup”, “(50” for “(27.8”, “night for 3 days. Thirty five” for “night. Twenty nine”, “4.” for “3.”

Assay [5] concerns Pythium spinosum. As to the kind of experiment: Antimicrobial test, mycelial growth on PSA medium (Test Example 1). The class given is cell-based. Particulars: 20° C., 2 day incubation. The method, then: (§3) Each sample fungal flora pre-cultured in PSA medium was cut from the medium plate with a cork borer, and placed on a center of PSA medium containing each test compound at a predetermined concentration, dispensed in a Petri dish with an inner diameter of 8 cm. Immediately thereafter, the dish was allowed to stand in a thermostatic room set at 20° C. The diameters of the flora zones were measured after 2 day incubation. A mycelial growth rate is calculated according to the following equation. […] A theoretically expected value can be calculated according to the following formula derived from the so-called Colby's formula. In cases where an observed value is lower than the theoretically expected one obtained from the formula derived from the Colby's formula, the phytopathogenic microorganism-disinfecting composition of the present invention is synergistically effective in combating and/or eliminating phytopathogenic microorganisms.

The subject of assay [6] is Pythium aphanidermatum. The assay is described as above. In kind it is cell-based. Particulars: 20° C., 2 day incubation. As to the method:
as §3

`Cc1ccc(-c2c(Cl)nc(C#N)n2S(=O)(=O)N(C)C)cc1` [Compound No. 1, 4-chloro-2-cyano-1-dimethylsulfamoyl-5-(4-methyl-phenyl)imidazole]: the “Damping-off Incidence Area Rate (%)” value was determined as 67% in assay [1] (Compound No. 1 278 g/ha alone) and 50% in assay [4] (Compound No. 1 139 g/ha alone). Further, the “Mycelial Growth Rate (%)” value in assay [2] (Compound No. 1 25 ppm alone) was determined as 59%; in assay [2] (Compound No. 1 50 ppm alone), 49%; in assay [2] (Compound No. 1 100 ppm alone), 44%; in assay [3] (Compound No. 1 25 ppm alone) it was 52%; in assay [3] (Compound No. 1 50 ppm alone), 29%; in assay [3] (Compound No. 1 100 ppm alone), 11%. Moreover, the “Mycelial Growth Rate (%)” value is 14.4% in assay [5] (Compound No. 1 25 ppm alone); 9.3% in assay [5] (Compound No. 1 50 ppm alone); 2.1% in assay [5] (Compound No. 1 100 ppm alone); 21.1% in assay [6] (Compound No. 1 25 ppm alone); 6.3% in assay [6] (Compound No. 1 50 ppm alone); 9.4% in assay [6] (Compound No. 1 100 ppm alone).
Turning to `Cc1cc(O)no1` [Hymexazol, 5-methylisoxazol-3-ol], the “Damping-off Incidence Area Rate (%)” value in assay [1] (Hymexazol 1,040 g/ha alone) amounted to 50%; in assay [4] (Hymexazol 1,040 g/ha alone (Compound No. 1 0 ppm)), 90%. Moreover, the “Mycelial Growth Rate (%)” value in assay [2] (Hymexazol 25 ppm alone) was 89%; in assay [2] (Hymexazol 50 ppm alone), 84%; in assay [2] (Hymexazol 100 ppm alone), 67%; in assay [3] (Hymexazol 25 ppm alone), 53%; in assay [3] (Hymexazol 50 ppm alone) it was 43%; in assay [3] (Hymexazol 100 ppm alone), 43%. In addition, the “Mycelial Growth Rate (%)” value in assay [5] (Hymexazol 25 ppm alone) is 27.8%; in assay [5] (Hymexazol 50 ppm alone), 21.6%; in assay [5] (Hymexazol 100 ppm alone), 23.7%; in assay [6] (Hymexazol 25 ppm alone) it was 22.7%; in assay [6] (Hymexazol 50 ppm alone) it was 16.4%; in assay [6] (Hymexazol 100 ppm alone) it was 6.3%.
